{"source": "patent EP0463456A1", "about": "“Phosphorus-containing HMG-CoA reductase inhibitors, new intermediates and their use” (E.R. SQUIBB & SONS, INC., priority 1990, dated 1992)", "target": "T1, Human skin fibroblasts (Homo sapiens, UniProt P04035)", "T1 sequence (P04035 1-888)": "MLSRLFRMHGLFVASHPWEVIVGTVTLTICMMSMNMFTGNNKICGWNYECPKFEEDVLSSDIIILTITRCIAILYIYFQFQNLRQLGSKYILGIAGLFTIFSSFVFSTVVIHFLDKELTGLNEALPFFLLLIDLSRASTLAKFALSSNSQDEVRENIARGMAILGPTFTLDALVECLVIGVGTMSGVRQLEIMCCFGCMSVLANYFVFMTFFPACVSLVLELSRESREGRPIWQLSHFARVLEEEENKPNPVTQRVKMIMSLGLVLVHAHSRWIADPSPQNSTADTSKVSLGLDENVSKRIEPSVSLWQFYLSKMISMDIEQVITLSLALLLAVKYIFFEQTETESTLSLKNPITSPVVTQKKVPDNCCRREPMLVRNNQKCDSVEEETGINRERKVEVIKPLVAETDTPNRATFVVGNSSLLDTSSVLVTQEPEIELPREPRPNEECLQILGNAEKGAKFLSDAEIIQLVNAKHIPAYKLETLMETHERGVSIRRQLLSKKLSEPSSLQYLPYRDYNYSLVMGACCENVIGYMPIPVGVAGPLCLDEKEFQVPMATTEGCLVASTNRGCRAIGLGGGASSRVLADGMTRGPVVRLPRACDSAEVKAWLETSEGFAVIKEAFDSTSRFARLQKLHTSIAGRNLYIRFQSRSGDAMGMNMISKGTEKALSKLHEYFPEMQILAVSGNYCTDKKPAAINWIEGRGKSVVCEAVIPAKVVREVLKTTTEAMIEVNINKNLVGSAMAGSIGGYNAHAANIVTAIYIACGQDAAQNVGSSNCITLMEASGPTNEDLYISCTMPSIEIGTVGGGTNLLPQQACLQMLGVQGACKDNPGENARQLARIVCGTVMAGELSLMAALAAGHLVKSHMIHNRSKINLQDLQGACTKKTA", "assay": "Cholesterol Synthesis in Human Skin Fibroblasts (14C-acetate incorporation into cholesterol)", "format": "cell-based", "details": "inhibition of 14C-acetate incorporation into cholesterol; 30 minutes preincubation, 4 hours with acetate; read-out: Fibroblasts 150", "procedure": "3) Cholesterol Synthesis in Human Skin Fibroblasts\nCompound selectivity favoring greater inhibitory activity in hepatic tissue would be an attribute for a cholesterol synthesis inhibitor. Therefore, in addition to evaluating cholesterol synthesis inhibitors in hepatocytes, these compounds are also tested for their activity as inhibitors of cholesterol synthesis in cultured fibroblasts. […]\na. Human Skin Fibroblast Cultures\nHuman skin fibroblasts (passage 7-27) are grown in Eagles' minimal essential medium (EM) containing 10% fetal calf serum. For each experiment, stock cultures are trypsonized to disperse the cell monolayer, counted, and plated in 35 mm tissue culture wells (5x10^S cells/2.0 ml). […]\nInduced fibroblast cultures are washed with EMEM100 (Earle's minimal essential medium). […] The organic phase is dried under nitrogen, and the residue resuspended in chloroform:methanol (2:1) (100 µl), and the total sample spotted on silica gel (LK6D) thin-layer plates, V, VO and analyzed as described for hepatocytes.\nInhibition of cholesterol synthesis is determined by comparing the percent of label in the cholesterol peak from control and drug-treated cultures. Results are expressed as 150 values, and are derived from composite dose response curves from two or more experiments. A 95% confidence interval for the 150 value is also calculated from the composite dose response curves.", "data": [{"substance": "(S)-4-[[[4-(4-Fluorophenyl)-1,2-bis(1-methylethyl)-5-phenyl-1H-pyrrol-3-yl]-ethynyl]hydroxyphosphinyl]-3-hydroxybutanoic acid, dilithium salt [SQ 34,346]", "values": [{"measurement": "IC50", "result": 2.5, "unit": "µM"}]}]}
